{"source": "patent US20260201476A1", "about": "“METHODS FOR IDENTIFYING RESISTANCE OR RESPONSE TO VENETOCLAX/HYPOMETHYLATING AGENT/ANTI-CD70 AGENT TREATMENT FOR ACUTE MYELOID LEUKEMIA” (The Regents of the University of Colorado, A Body Corporate, priority 2022, published 2026)", "key": {"AML [1]": {"system": "AML", "conditions": "older previously untreated AML patients; venetoclax in combination with backbone chemotherapy treatments; cited from earlier work"}, "newly diagnosed AML": {"system": "newly diagnosed AML", "conditions": "1118 newly diagnosed AML patients, cited from earlier work"}, "AML [2]": {"system": "AML", "assay": "Survival probability of AML subjects by biomarker after venetoclax/azacitidine with or without cusatuzumab (Example 3)", "type": "in vivo, human", "excerpt": "The following is a non-limiting example of analysis showing the response of AML subjects to treatment with a combination of venetoclax and azacitidine, or a combination of venetoclax, azacitidine and cusatuzumab, based on various different biomarkers.\nFIGS. 12-15 are a series of graphs showing the survival probability of AML subjects after receiving a combination of venetoclax, azacitidine and cusatuzumab. The left panel of each of FIGS. 12-15 are all subjects for which data was available, and the right panel is a subset of the data presented in the left panel minus the subjects who received at least one stem cell transplant.\nFIGS. 16-18 are a series of graphs showing the survival probability of AML subjects after receiving either a combination of venetoclax and azacitidine (top panels) or a combination of venetoclax, azacitidine and cusatuzumab (bottom panels)."}}, "note": "Like-named read-outs stand apart in the source and are kept apart here."}
{"compound": "CC1(C)CCC(CN2CCN(c3ccc(C(=O)NS(=O)(=O)c4ccc(NCC5CCOCC5)c([N+](=O)[O-])c4)c(Oc4cnc5[nH]ccc5c4)c3)CC2)=C(c2ccc(Cl)cc2)C1", "note": "[venetoclax, 4-(4-{[2-(4-Chlorophenyl)-4,4-dimethyl-1-cyclohexen-1-yl]methyl}-1-piperazinyl)-N-({3-nitro-4-[(tetrahydro-2H-pyran-4-ylmethyl)amino]phenyl}sulfonyl)-2-(1H-pyrrolo[2,3-b]pyridin-5-yloxy)benzamide]", "values": [{"measurement": "responses", "setting": "AML [1]", "result": "60-70%"}]}
{"compound": "Nc1ccn([C@@H]2O[C@H](CO)[C@@H](O)[C@@H]2O)c(=O)n1", "note": "[cytarabine, 4-amino-1-[(2R,3S,4S,5R)-3,4-dihydroxy-5-(hydroxymethyl)oxolan-2-yl] pyrimidin-2-one]", "values": [{"measurement": "5-year OS", "setting": "newly diagnosed AML; ELN 2022 adverse risk group", "result": 15, "unit": "%"}, {"measurement": "5-year OS", "setting": "newly diagnosed AML; ELN 2022 favorable risk group", "result": 55, "unit": "%"}, {"measurement": "5-year OS", "setting": "newly diagnosed AML; ELN 2022 intermediate risk group", "result": 34, "unit": "%"}]}
{"compound": "cusatuzumab: an anti-CD70 monoclonal antibody currently being tested in clinical trials for the treatment of AML", "values": [{"measurement": "effect of adding cusatuzumab to venetoclax and azacitidine on survival", "setting": "AML [2]; CD7+ AML (FIG. 16)", "result": "overcome the poor prognostic significant of CD7+ AML"}, {"measurement": "effect of adding cusatuzumab to venetoclax and azacitidine on survival", "setting": "AML [2]; FIG. 18 (PTPN11), text prints mutated KRAS", "result": "overcome the poor prognostic significant of mutated KRAS"}, {"measurement": "effect of adding cusatuzumab to venetoclax and azacitidine on survival", "setting": "AML [2]; mutated KRAS (FIG. 17)", "result": "overcome the poor prognostic significant of mutated KRAS"}]}
